Experiment [1] relates to pancreatic neuroendocrine tumors. The note with it: ref Paez-Ribes et al, 2009; cited from earlier work. An excerpt: There are at least two plausible explanations for this differential impact of SU on hematogenous metastasis (to lung/liver) vs. lymphogenous metastasis (to LNs). Paez-Ribes et al ...
The subject of experiment [2] is human microvascular ECs of lung blood vessel origin (HMVEC-LBl). Put plainly: modified Boyden chamber, thrombin-stimulated FITC-dextran permeability, HMVEC-LBl. Type of experiment: cell-based. The note with it: VT 10–20 ng/mL, Ang1 200–400 ng/mL, 30 min pretreatment, FITC fluorescence ex/em 490/520 nm, n = 3–5 inserts, unpaired t-test, Fig1A. The protocol:
ECs were first treated with Vasculotide (VT), PBS (vehicle/negative control), Ang1 (positive control), PEG-Cys (polyethylene glycol backbone), T7c (non-PEGylated CHHHRHSF peptides), or VT in the presence of 100-fold molar excess of T7c. The concentrations used, 10–20 ng/mL VT and 200–400 ng/mL Ang1, are estimated molar equivalents (0.71–1.43 nM). Thirty minutes later, ECs were stimulated with thrombin, 0.1% BSA (vehicle/negative control), or EDTA (positive control). Another 30mins later, the amount of FITC-dextran diffusion into the lower chambers (A, D) provides a measure of endothelial permeability. CMTPX-labeled tumor cells (TCs) were then dispensed into inserts, and the amount of TC fluorescence emitting from the underside of insert membranes after 20 h (B–C) or 28 h (E) reflects the efficiency of trans-endothelial TC migration. […] Three experiments (twice with HMVEC-LBl and once with HMVEC-DBl) were run with n = 3–5 inserts (independent biological replicates) per group and analyzed by two-sampled unpaired t-tests. […]
Endothelial cells (ECs) were grown on cell culture inserts with uncoated 8-μm-pore PET filter membranes to 100% confluency. […] After 30 min of thrombin stimulation or 4–6 h of TC-CM stimulation, FITC fluorescence (ex/em = 490/520 nm) was measured from a 50 μl sample of the lower chamber media. […]

The test system of experiment [3] is human microvascular ECs of dermal blood vessel origin (HMVEC-DBl). In words: modified Boyden chamber, thrombin-stimulated FITC-dextran permeability, HMVEC-DBl. Type of experiment: cell-based. The conditions noted are these: Fig1D. The protocol:
ECs were first treated with Vasculotide (VT), PBS (vehicle/negative control), Ang1 (positive control), PEG-Cys (polyethylene glycol backbone), T7c (non-PEGylated CHHHRHSF peptides), or VT in the presence of 100-fold molar excess of T7c. The concentrations used, 10–20 ng/mL VT and 200–400 ng/mL Ang1, are estimated molar equivalents (0.71–1.43 nM). Thirty minutes later, ECs were stimulated with thrombin, 0.1% BSA (vehicle/negative control), or EDTA (positive control). Another 30mins later, the amount of FITC-dextran diffusion into the lower chambers (A, D) provides a measure of endothelial permeability. CMTPX-labeled tumor cells (TCs) were then dispensed into inserts, and the amount of TC fluorescence emitting from the underside of insert membranes after 20 h (B–C) or 28 h (E) reflects the efficiency of trans-endothelial TC migration. Representative fluorescent images (10×) of membrane undersides are shown in (C), where DAPI-stained nuclei of ECs/TCs are shown in blue, ‘extravasated’ CMTPX-labeled TCs are shown in red, and the # of CMTPX^+ pixels are shown numerically in red. Means ± SEM are shown (A,B,D,E). Three experiments (twice with HMVEC-LBl and once with HMVEC-DBl) were run with n = 3–5 inserts (independent biological replicates) per group and analyzed by two-sampled unpaired t-tests. […]
Endothelial cells (ECs) were grown on cell culture inserts with uncoated 8-μm-pore PET filter membranes to 100% confluency. […] After 30 min of thrombin stimulation or 4–6 h of TC-CM stimulation, FITC fluorescence (ex/em = 490/520 nm) was measured from a 50 μl sample of the lower chamber media. […] CMPTX fluorescence from migrated TCs was then quantified from 10× microscopy images using a MATLAB (MathWorks, Natick, MA, USA) script; five images (technical replicates) were analyzed per insert. […]

The source of these data is PMC4459817, “Vasculotide reduces endothelial permeability and tumor cell extravasation in the absence of binding to or agonistic activation of Tie2” (EMBO Molecular Medicine, 2015).

For the molecule `CCN(CC)CCNC(=O)c1c(C)[nH]c(/C=C2\C(=O)Nc3ccc(F)cc32)c1C` [sunitinib, reference compound], in experiment [1], the “metastasis to the liver but not the lymph nodes” value is “increased metastasis to the liver but not the lymph nodes”.

For the molecule “CHHHRHSF [Vasculotide, 4-armed maleimide-functionalized polyethylene glycol (PEG) backbone to link together four cysteine-capped T7 peptides, that is, CHHHRHSF]”, the “transendothelial permeability of FITC-dextran” value is recorded as “counteract thrombin-stimulated increases in transendothelial permeability of FITC-dextran (P < 0.05” in experiment [2] and “counteract thrombin-stimulated increases in transendothelial permeability of FITC-dextran (P < 0.05” in experiment [3] (thrombin-stimulated HMVEC-DBl, VT 10–20 ng/mL, FITC fluorescence ex/em 490/520 nm, n = 3–5 inserts). In addition, the “anti-permeability effect of VT in presence of 100-fold molar excess of T7c” value in experiment [3] (HMVEC-DBl) was “dampened the effects of VT”.

B1: recombinant human Ang1 (rhAng1) (ligand, UniProt Q15389 16-498, looked up)
chain: HIGCSNQRRSPENSGRRYNRIQHGQCAYTFILPEHDGNCRESTTDQYNTNALQRDAPHVEPDFSSQKLQHLEHVMENYTQWLQKLENYIVENMKSEMAQIQQNAVQNHTATMLEIGTSLLSQTAEQTRKLTDVETQVLNQTSRLEIQLLENSLSTYKLEKQLLQQTNEILKIHEKNSLLEHKILEMEGKHKEELDTLKEEKENLQGLVTRQTYIIQELEKQLNRATTNNSVLQKQQLELMDTVHNLVNLCTKEGVLLKGGKREEEKPFRDCADVYQAGFNKSGIYTIYINNMPEPKKVFCNMDVNGGGWTVIQHREDGSLDFQRGWKEYKMGFGNPSGEYWLGNEFIFAITSQRQYMLRIELMDWEGNRAYSQYDRFHIGNEKQNYRLYLKGHTGTAGKQSSLILHGADFSTKDADNDNCMCKCALMLTGGWWFDACGPSNLNGMFYTAGQNHGKLNGIKWHYFKGPSYSLRSTTMMIRPLDF
notes: angiopoietin-1, human, recombinant; also called angiopoietin-1; source: bought: R&D Systems (named for the Boyden chamber experiments)
For the molecule B1, the “transendothelial permeability of FITC-dextran” value in experiment [2] was “counteract thrombin induction of trans-endothelium macromolecular permeability”.
